Experimental data published in patent US20260297085A1, “1 H-PYRROLO[2,3-B]PYRIDIN-4-YL]-2-OXOPYRROLIDINE-3-CARBONITRILE DERIVATIVES AS TYROSINE KINASE 2 (TYK2) INHIBITORS FOR THE TREATMENT OF INFLAMMATORY DISEASES” (BIOGEN MA INC., priority 2023, published 2026).
Structures can show the parent of a compound that is named as a salt.

Experiments:
[1] = target: JAK1 kinase activity on STAT3 in TF1 cells (Homo sapiens, UniProt P23458); assay: pSTAT3 cell assay (MSD; TF1 cells, 30 ng/mL IL-6 stimulation); type: cell-based; conditions: 30 ng/mL IL-6, 15 minutes
Sequence of JAK1 kinase activity on STAT3 in TF1 cells (P23458 whole entry): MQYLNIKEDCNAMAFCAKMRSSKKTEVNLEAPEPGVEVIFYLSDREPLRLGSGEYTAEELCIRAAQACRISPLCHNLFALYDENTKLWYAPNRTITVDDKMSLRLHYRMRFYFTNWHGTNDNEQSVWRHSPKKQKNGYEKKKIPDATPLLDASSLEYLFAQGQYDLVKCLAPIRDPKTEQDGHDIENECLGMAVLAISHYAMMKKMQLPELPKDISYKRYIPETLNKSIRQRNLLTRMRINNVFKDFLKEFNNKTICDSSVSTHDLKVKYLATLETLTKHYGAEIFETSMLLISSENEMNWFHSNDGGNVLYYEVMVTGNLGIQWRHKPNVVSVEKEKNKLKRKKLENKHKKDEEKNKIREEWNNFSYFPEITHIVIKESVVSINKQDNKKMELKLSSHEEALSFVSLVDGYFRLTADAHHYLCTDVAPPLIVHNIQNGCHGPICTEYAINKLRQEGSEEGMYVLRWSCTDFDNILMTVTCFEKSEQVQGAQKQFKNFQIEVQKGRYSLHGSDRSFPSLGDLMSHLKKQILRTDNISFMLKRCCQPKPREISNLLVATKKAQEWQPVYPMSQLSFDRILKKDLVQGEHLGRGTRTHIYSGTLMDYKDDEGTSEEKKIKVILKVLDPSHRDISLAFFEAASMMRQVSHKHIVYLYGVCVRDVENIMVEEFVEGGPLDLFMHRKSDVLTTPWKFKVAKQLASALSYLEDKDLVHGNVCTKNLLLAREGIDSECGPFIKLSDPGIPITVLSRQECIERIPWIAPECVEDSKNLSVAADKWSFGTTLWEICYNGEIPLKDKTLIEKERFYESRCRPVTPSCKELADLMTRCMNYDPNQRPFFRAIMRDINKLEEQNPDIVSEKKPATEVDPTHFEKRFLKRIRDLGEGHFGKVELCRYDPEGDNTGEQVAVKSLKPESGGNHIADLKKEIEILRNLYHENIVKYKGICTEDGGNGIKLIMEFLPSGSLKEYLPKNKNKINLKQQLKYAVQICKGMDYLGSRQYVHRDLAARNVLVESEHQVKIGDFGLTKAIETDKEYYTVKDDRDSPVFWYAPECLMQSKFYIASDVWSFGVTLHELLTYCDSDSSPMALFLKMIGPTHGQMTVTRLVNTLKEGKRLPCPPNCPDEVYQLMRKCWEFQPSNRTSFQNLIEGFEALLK
Procedure, shortened: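 Serum starvation, 1 h compound (10 pt, 4-fold from 10 μM), IL-6 15 min, lysis. pSTAT3 read by MSD immunoassay, anti-STAT3 Abs. Normalized % activity vs log[cpd], 4-PL fit → IC50.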

[2] = target: T1, human JAK1 kinase domain (JH1) (Homo sapiens, UniProt P23458); assay: JH1 biochemical assay for JAK1 (ADP-Glo kinase assay, recombinant JH1 catalytic domain, JAK3-342 peptide, 35 μM ATP)
T1 construct: recombinantly generated catalytic kinase (also known as JH1) domain of human JAK1, JAK2, JAK3 and TYK2
T1 sequence (P23458 875-1153 limits assumed): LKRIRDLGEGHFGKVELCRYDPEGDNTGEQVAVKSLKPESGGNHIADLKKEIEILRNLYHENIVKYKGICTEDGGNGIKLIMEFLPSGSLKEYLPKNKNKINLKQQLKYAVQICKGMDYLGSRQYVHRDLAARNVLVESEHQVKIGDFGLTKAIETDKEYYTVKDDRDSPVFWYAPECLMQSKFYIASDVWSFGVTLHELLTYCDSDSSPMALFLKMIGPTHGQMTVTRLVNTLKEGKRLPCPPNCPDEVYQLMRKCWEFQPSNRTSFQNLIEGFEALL
Procedure, shortened: (§1)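 Reactions contain 50 μM peptide and run 100 minutes, with enzyme at 4, 0.2, 0.3 and 2 nM for JAK1, JAK2, JAK3 and TYK2. Generated ADP is read by luminescence; IC50 derives from normalized dose-response curves.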

[3] = target: JAK2 kinase activity on STAT5 in TF1 cells (Homo sapiens, UniProt O60674); assay: pSTAT5 cell assay (MSD; TF1 cells, 30 ng/mL IL-3 stimulation); type: cell-based; conditions: 30 ng/mL IL-3, 15 minutes
Sequence of JAK2 kinase activity on STAT5 in TF1 cells (O60674 whole entry): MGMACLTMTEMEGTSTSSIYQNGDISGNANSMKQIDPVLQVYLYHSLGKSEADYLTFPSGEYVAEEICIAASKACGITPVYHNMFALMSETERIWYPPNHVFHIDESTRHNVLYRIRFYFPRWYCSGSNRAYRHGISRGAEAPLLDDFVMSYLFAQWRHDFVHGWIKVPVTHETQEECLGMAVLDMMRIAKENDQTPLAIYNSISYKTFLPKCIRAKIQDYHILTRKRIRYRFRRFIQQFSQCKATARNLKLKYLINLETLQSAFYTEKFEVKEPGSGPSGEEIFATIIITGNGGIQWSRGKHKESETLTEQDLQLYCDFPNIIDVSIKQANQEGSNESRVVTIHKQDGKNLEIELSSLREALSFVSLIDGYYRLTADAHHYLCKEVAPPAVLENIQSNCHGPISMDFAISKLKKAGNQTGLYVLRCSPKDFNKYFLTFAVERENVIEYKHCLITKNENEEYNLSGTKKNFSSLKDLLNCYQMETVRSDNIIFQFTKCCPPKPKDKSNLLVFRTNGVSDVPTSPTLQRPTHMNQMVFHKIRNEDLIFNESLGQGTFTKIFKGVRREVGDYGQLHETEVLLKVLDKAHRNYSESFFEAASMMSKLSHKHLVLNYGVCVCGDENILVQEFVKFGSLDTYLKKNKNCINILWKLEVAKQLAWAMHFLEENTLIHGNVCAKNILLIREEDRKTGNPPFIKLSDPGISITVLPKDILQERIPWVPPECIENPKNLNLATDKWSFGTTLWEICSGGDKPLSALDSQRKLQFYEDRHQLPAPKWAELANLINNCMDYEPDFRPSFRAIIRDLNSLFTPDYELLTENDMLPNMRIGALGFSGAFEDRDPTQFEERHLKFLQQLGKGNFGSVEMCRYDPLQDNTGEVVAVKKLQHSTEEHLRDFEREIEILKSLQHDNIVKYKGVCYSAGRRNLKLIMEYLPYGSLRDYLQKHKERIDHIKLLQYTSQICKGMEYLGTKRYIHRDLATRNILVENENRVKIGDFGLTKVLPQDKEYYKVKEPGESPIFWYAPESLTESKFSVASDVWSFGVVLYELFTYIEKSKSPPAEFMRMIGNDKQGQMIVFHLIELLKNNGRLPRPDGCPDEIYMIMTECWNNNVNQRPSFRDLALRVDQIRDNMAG
Procedure, shortened: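 IC50 from a 4-parameter logistic fit of normalized pSTAT5 signal, measured by MSD in lysates of TF1 cells. Cells were serum-starved, exposed to compound for 1 h (top concentration 10 μM, four-fold, 10 points), then given IL-3 at 30 ng/mL for 15 min.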

[4] = target: T2, human TYK2 kinase domain (JH1) (Homo sapiens, UniProt P29597); assay: JH1 biochemical assay for TYK2 (ADP-Glo kinase assay, recombinant JH1 catalytic domain, JAK3-974 peptide, 10 μM ATP)
T2 construct: recombinantly generated catalytic kinase (also known as JH1) domain of human JAK1, JAK2, JAK3 and TYK2
T2 sequence (P29597 897-1176 limits assumed): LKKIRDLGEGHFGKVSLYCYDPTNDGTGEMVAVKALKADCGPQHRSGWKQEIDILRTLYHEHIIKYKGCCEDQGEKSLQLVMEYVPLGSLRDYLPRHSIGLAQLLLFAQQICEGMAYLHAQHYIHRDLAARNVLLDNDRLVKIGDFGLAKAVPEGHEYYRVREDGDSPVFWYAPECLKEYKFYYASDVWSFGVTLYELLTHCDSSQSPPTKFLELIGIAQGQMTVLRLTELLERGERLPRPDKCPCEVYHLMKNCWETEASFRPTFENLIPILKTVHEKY
Procedure, shortened: as §1

[5] = target: Tyk2 kinase activity on STAT4 in NK92 cells (Homo sapiens, UniProt P29597); assay: pSTAT4 cell assay (MSD; NK92 cells, 30 ng/mL IL2 stimulation); type: cell-based; conditions: 30 ng/mL IL2, 15 minutes
Sequence of Tyk2 kinase activity on STAT4 in NK92 cells (P29597 whole entry): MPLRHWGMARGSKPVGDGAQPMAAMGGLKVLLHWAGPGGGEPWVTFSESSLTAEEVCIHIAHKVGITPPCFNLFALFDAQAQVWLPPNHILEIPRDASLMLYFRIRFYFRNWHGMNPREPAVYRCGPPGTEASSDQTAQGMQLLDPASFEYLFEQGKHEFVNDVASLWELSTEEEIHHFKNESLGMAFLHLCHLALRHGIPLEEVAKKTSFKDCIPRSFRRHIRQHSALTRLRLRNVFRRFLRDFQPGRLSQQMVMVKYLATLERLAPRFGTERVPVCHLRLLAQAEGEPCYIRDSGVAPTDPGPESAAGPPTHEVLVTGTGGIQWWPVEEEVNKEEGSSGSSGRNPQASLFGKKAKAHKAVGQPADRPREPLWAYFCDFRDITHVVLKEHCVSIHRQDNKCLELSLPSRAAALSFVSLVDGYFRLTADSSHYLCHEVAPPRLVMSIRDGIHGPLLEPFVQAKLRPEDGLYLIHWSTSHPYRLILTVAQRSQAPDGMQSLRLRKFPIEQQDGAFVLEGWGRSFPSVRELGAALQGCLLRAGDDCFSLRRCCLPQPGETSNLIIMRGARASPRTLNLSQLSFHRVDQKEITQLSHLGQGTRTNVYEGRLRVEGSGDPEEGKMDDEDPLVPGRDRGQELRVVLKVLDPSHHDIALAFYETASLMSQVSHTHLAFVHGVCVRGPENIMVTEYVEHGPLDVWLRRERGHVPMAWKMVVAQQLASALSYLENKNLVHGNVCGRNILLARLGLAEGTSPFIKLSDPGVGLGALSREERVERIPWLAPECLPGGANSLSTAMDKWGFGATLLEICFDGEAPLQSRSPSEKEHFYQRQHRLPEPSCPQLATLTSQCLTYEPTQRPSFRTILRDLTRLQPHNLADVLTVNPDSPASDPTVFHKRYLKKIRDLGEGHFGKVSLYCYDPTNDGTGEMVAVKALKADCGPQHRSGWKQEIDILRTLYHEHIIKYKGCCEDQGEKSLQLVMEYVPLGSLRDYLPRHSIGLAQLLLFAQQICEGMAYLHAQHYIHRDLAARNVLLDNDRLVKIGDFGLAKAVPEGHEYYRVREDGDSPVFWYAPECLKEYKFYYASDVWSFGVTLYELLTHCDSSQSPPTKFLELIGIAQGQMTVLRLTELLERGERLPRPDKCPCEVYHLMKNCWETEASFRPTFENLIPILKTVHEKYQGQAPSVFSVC
Procedure, shortened: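 Read-out: phospho-STAT in NK92 lysates, MSD format, anti-STAT4 antibodies. Cells were serum-starved, given compound for 1 hr (10 μM top, four-fold, 10 points) and IL2-stimulated (30 ng/mL, 15 min). Normalized percent activity vs log concentration, 4-parameter logistic fit gave IC50.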

[6] = target: T3, human JAK2 kinase domain (JH1) (Homo sapiens, UniProt O60674); assay: JH1 biochemical assay for JAK2 (ADP-Glo kinase assay, recombinant JH1 catalytic domain, JAK3-974 peptide, 15 μM ATP)
T3 construct: recombinantly generated catalytic kinase (also known as JH1) domain of human JAK1, JAK2, JAK3 and TYK2
T3 sequence (O60674 849-1124 limits assumed): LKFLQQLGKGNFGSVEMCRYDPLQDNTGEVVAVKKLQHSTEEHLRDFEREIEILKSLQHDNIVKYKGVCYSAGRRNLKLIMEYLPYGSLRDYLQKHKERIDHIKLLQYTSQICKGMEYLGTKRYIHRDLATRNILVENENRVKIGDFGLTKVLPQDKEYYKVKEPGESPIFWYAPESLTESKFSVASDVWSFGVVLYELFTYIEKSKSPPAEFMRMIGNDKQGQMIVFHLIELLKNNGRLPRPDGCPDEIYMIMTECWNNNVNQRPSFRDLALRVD
Procedure, shortened: as §1

[7] = target: T4, human JAK3 kinase domain (JH1) (Homo sapiens, UniProt P52333); assay: JH1 biochemical assay for JAK3 (ADP-Glo kinase assay, recombinant JH1 catalytic domain, JAK3-974 peptide, 4 μM ATP)
T4 construct: recombinantly generated catalytic kinase (also known as JH1) domain of human JAK1, JAK2, JAK3 and TYK2
T4 sequence (P52333 822-1111 limits assumed): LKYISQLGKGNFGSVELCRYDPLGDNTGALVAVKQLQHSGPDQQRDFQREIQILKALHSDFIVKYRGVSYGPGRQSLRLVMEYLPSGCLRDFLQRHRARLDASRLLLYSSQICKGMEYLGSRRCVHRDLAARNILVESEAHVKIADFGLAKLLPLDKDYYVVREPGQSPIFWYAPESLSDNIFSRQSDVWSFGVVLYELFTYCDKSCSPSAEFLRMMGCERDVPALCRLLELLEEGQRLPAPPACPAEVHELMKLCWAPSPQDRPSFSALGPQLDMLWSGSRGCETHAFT
Procedure, shortened: as §1

Row | SMILES | IC50 [1] [µM] | IC50 ([2]; JH1 kinase domain, ADP-Glo) [nM] | IC50 [3] [µM] | IC50 ([4]; JH1 kinase domain, ADP-Glo) [nM] | IC50 [5] [nM] | IC50 ([6]; JH1 kinase domain, ADP-Glo) [nM] | IC50 ([7]; JH1 kinase domain, ADP-Glo) [nM] | IC50 ([2]; JAK1 JH1, ADP-Glo) [nM] | IC50 ([4]; TYK2 JH1, ADP-Glo) [nM] | IC50 ([6]; JAK2 JH1, ADP-Glo) [nM] | IC50 ([7]; JAK3 JH1, ADP-Glo) [nM]
1 | COc1cc(-c2cc3c(N4C[C@@H](C)[C@@](C#N)(C5CC5)C4=O)ccnn3c2)ccn1 [Example 65, (3R,4S)-3-cyclopropyl-1-(6-(2-methoxypyridin-4-yl)pyrrolo[1,2-b]pyridazin-4-yl)-4-methyl-2-oxopyrrolidine-3-carbonitrile] | 1 to 5 | 100 to 1000 | > 10 | 5 to 20 | 50 to 100 | 100 to 1000 | 100 to 1000 | – | – | – | –
2 | C[C@@H]1CN(c2ccnn3cc(-c4ccnc(F)c4)cc23)C(=O)[C@]1(C#N)C1CC1 [Example 73, (3R,4S)-3-cyclopropyl-1-(6-(2-fluoropyridin-4-yl)pyrrolo[1,2-b]pyridazin-4-yl)-4-methyl-2-oxopyrrolidine-3-carbonitrile] | 1 to 5 | 100 to 1000 | > 10 | 5 to 20 | > 100 | 100 to 1000 | 100 to 1000 | – | – | – | –
3 | C[C@@H]1CN(c2ccnn3cc(-c4cn(C)nn4)cc23)C(=O)[C@]1(C#N)C1CC1 [Example 112, (3R,4S)-3-cyclopropyl-4-methyl-1-(6-(1-methyl-1H-1,2,3-triazol-4-yl)pyrrolo[1,2-b]pyridazin-4-yl)-2-oxopyrrolidine-3-carbonitrile trifluoroacetate] | > 10 | 100 to 1000 | > 10 | 5 to 20 | > 100 | 100 to 1000 | 100 to 1000 | – | – | – | –
4 | C[C@@H]1CN(c2nc(-c3cnn(CC#N)c3)cn3ncc(F)c23)C(=O)[C@]1(C#N)C1CC1 [Example 220, (3R,4S)-1-(6-(1-(cyanomethyl)-1H-pyrazol-4-yl)-3-fluoropyrazolo[1,5-a]pyrazin-4-yl)-3-cyclopropyl-4-methyl-2-oxopyrrolidine-3-carbonitrile] | 1 to 5 | – | 1 to 5 | – | > 100 | – | – | 100 to 1000 | < 5 | 100 to 1000 | < 100
5 | C[C@@H]1CN(c2nc(-c3ccc(=O)n(C)c3)cn3nccc23)C(=O)[C@]1(C#N)C1CC1 [Example 245, (3R,4S)-3-cyclopropyl-4-methyl-1-(6-(1-methyl-6-oxo-1,6-dihydropyridin-3-yl)pyrazolo[1,5-a]pyrazin-4-yl)-2-oxopyrrolidine-3-carbonitrile] | 0.1 to 1 | – | 1 to 5 | – | 50 to 100 | – | – | < 100 | < 5 | 100 to 1000 | < 100
6 | CC(C)n1cc(-n2nc(N3C[C@@H](C)[C@@](C#N)(C4CC4)C3=O)c3ccncc32)cn1 [Example 280, (3R,4S)-3-cyclopropyl-1-(1-(1-isopropyl-1H-pyrazol-4-yl)-1H-pyrazolo[3,4-c]pyridin-3-yl)-4-methyl-2-oxopyrrolidine-3-carbonitrile] | 1 to 5 | – | > 10 | – | > 100 | – | – | 100 to 1000 | < 5 | 100 to 1000 | 100 to 1000
7 | Cc1cnn(-c2cc3c(N4C[C@@H](C)[C@@](C#N)(C5CC5)C4=O)ccnn3c2)c1 [Example 333, (3R,4S)-3-cyclopropyl-4-methyl-1-(6-(4-methyl-1H-pyrazol-1-yl)pyrrolo[1,2-b]pyridazin-4-yl)-2-oxopyrrolidine-3-carbonitrile] | > 10 | – | > 10 | – | > 100 | – | – | 100 to 1000 | 5 to 20 | 100 to 1000 | 100 to 1000
8 | C[C@@H]1CN(c2ccnn3cc(-c4cccc5c4cnn5C)cc23)C(=O)[C@]1(C#N)C1CC1 [Example 54, (3R,4S)-3-cyclopropyl-4-methyl-1-(6-(1-methyl-1H-indazol-4-yl)pyrrolo[1,2-b]pyridazin-4-yl)-2-oxopyrrolidine-3-carbonitrile] | 5 to 10 | 100 to 1000 | > 10 | 5 to 20 | > 100 | 1000 to 5000 | 100 to 1000 | – | – | – | –
